Experimental data taken from ChEMBL document CHEMBL5584309, “Discovery of Novel Mcl-1 Inhibitors with a 3-Substituted-1H-indole-1-yl Moiety Binding to the P1-P3 Pockets to Induce Apoptosis in Acute Myeloid Leukemia Cells” (J Med Chem, 2024).
Calls of active or inactive are those of the source. The calls are words filed in the database; no cut-off is given here.

What was measured:
HL-60 = assay: Induction of apoptosis in human HL-60 cells assessed as increase in Noxa measured after 24 hrs by Western blot analysis; format: functional, cell-based; conditions: dose 10-20 µM
THP-1 [1] = assay: Induction of apoptosis in human THP-1 cells assessed as increase in Noxa measured after 24 hrs by Western blot analysis; format: functional, cell-based; conditions: dose 10-20 µM
THP-1 [2] = assay: Induction of apoptosis in Noxa knockdown human THP-1 cells assessed as PARP cleavage at 20 uM measured after 24 hrs by […]; format: functional, cell-based
[3] = Half life in Sprague-Dawley rat at 5 mg/kg, iv measured upto 24 hrs by LC-MS/MS analysis; format: ADME, organism-based; conditions: in vivo
[4] = Tmax in Sprague-Dawley rat at 5 mg/kg, iv measured upto 24 hrs by LC-MS/MS analysis; format: ADME, organism-based; conditions: in vivo
[5] = AUC (0 to t) in Sprague-Dawley rat at 5 mg/kg, iv measured upto 24 hrs by LC-MS/MS analysis; format: ADME, organism-based; conditions: in vivo
[6] = AUC (0 to infinity) in Sprague-Dawley rat at 5 mg/kg, iv measured upto 24 hrs by LC-MS/MS analysis; format: ADME, organism-based; conditions: in vivo
[7] = MRT (0 to t) in Sprague-Dawley rat at 5 mg/kg, iv measured upto 24 hrs by LC-MS/MS analysis; format: ADME, organism-based; conditions: in vivo
[8] = MRT (0 to infinity) in Sprague-Dawley rat at 5 mg/kg, iv measured upto 24 hrs by LC-MS/MS analysis; format: ADME, organism-based; conditions: in vivo
[9] = Half life in Sprague-Dawley rat at 20 mg/kg, ip measured upto 24 hrs by LC-MS/MS analysis; format: ADME, organism-based; conditions: in vivo
[10] = Cmax in Sprague-Dawley rat at 20 mg/kg, ip measured upto 24 hrs by LC-MS/MS analysis; format: ADME, organism-based; conditions: in vivo
[11] = AUC (0 to t) in Sprague-Dawley rat at 20 mg/kg, ip measured upto 24 hrs by LC-MS/MS analysis; format: ADME, organism-based; conditions: in vivo
[12] = AUC (0 to infinity) in Sprague-Dawley rat at 20 mg/kg, ip measured upto 24 hrs by LC-MS/MS analysis; format: ADME, organism-based; conditions: in vivo
[13] = MRT (0 to infinity) in Sprague-Dawley rat at 20 mg/kg, ip measured upto 24 hrs by LC-MS/MS analysis; format: ADME, organism-based; conditions: in vivo
[14] = Bioavailability in Sprague-Dawley rat at 20 mg/kg, ip measured upto 24 hrs by LC-MS/MS analysis; format: ADME, organism-based; conditions: in vivo
[15] = Cytotoxicity against rat H9c2 cells assessed as cell viability measured after 72 hrs by MTT assay; format: toxicity, cell-based
[16] = Cytotoxicity against human AC16 cells assessed as change in intracellular calcium level at 20 uM measured after 24 hrs by Fluo-4 AM based flow cytometry; format: toxicity, cell-based; conditions: ac16 [human hybrid]
[17] = Toxicity in NOD SCID mouse assessed as change in body weight at 25 mg/kg, ip administered for 7 consecutive days; format: organism-based; conditions: in vivo, 168 h, time 7 day
[18] = Toxicity in NOD SCID mouse assessed as change in liver tissue at 25 mg/kg, ip administered for 7 consecutive days by Hematoxylin-eosin (HE) staining based assay; format: organism-based; conditions: in vivo, 168 h, time 7 day
[19] = Toxicity in NOD SCID mouse assessed as change in lung tissue at 25 mg/kg, ip administered for 7 consecutive days by Hematoxylin-eosin (HE) staining based assay; format: organism-based; conditions: in vivo, 168 h, time 7 day
[20] = Toxicity in NOD SCID mouse xenografted with human HL-60 cells assessed as change in body weight at 80 mg/kg, ip once daily after 15 days of tumor inoculation treated for 12 days; format: organism-based; conditions: in vivo, 288 h, time 12 day
[21] = Toxicity in NOD SCID mouse xenografted with human HL-60 cells assessed as change in liver tissue at 80 mg/kg, ip once daily after 15 days of tumor inoculation treated for 12 days; format: organism-based; conditions: in vivo, 288 h, time 12 day
THP-1 [22] = assay: In vivo antitumor activity against human THP-1 cells xenografted in female NOD SCID mouse assessed as tumor growth inhibition at 40 mg/kg, ip once daily after 10 days of tumor inoculation treated for 14 days relative to control; format: functional; conditions: THP-1, 336 h, time 14 day, read-out: TGI
[23] = Toxicity in NOD SCID mouse xenografted with human THP-1 cells assessed as change in heart tissue at 40 to 80 mg/kg, ip once daily after 10 days of tumor inoculation treated for 14 days relative to control; format: organism-based; conditions: in vivo, 336 h, dose 40-80 mg/kg, time 14 day
[24] = Toxicity in NOD SCID mouse xenografted with human THP-1 cells assessed as change in lung tissue at 40 to 80 mg/kg, ip once daily after 10 days of tumor inoculation treated for 14 days relative to control; format: organism-based; conditions: in vivo, 336 h, dose 40-80 mg/kg, time 14 day
[25] = Toxicity in NOD SCID mouse xenografted with human THP-1 cells assessed as change in liver tissue at 40 to 80 mg/kg, ip once daily after 10 days of tumor inoculation treated for 14 days relative to control; format: organism-based; conditions: in vivo, 336 h, dose 40-80 mg/kg, time 14 day
[26] = Toxicity in NOD SCID mouse xenografted with human THP-1 cells assessed as change in kidney tissue at 40 to 80 mg/kg, ip once daily after 10 days of tumor inoculation treated for 14 days relative to control; format: organism-based; conditions: in vivo, 336 h, dose 40-80 mg/kg, time 14 day

SMILES: Cc1cc(OCCCc2c(C(=O)O)n(CCN3CCOCC3)c3c(-c4ccccc4Cn4cc(CCN(CCN5CCOCC5)S(=O)(=O)c5ccc(F)cc5)c5ccccc54)cccc23)cc(C)c1Cl
- Activity (HL-60): Dose-Dependent Effect
- Activity (THP-1 [1]): Dose-Dependent Effect
- Activity (THP-1 [2]): inactive
- half-life [3]: 4.9 h
- Tmax [4]: 4.98 min
- AUC(0-t) at 24 h [5]: 18700 ng·h/mL
- AUC(0-inf) [6]: 18800 ng·h/mL
- MRT last at 24 h [7]: 1.14 h
- MRT inf [8]: 1.3 h
- half-life [9]: 4.1 h
- Cmax [10]: 6240 ng/mL
- AUC(0-t) at 24 h [11]: 54600 ng·h/mL
- AUC(0-inf) [12]: 55800 ng·h/mL
- MRT inf [13]: 7.03 h
- bioavailability [14]: 74%
- IC50 at 72 h [15]: 17.9 µM
- Activity [16]: Non-Toxic
- Activity [17]: Non-Toxic
- Activity [18]: Non-Toxic
- Activity [19]: Non-Toxic
- Activity [20]: Non-Toxic
- Activity [21]: Non-Toxic
- inhibition in vivo at 40 mg/kg (THP-1 [22]): 40.2%
- Activity [23]: Non-Toxic
- Activity [24]: Non-Toxic
- Activity [25]: Non-Toxic
- Activity [26]: Non-Toxic
